The source of these data is patent US11725107B2, “Polylysine polymers with antimicrobial and/or anticancer activity” (International Business Machines Corporation, priority 2019, dated 2023).

The test has as its system K. pneumoniae. As to the kind of experiment: Antimicrobial activity (MIC) of polymers and antibiotics individually. Type of test: cell-based. To be noted: Klebsiella pneumoniae, agents individually. An excerpt:
As depicted in FIGS. 1-5, “m” can represent a number that is, for example, greater than or equal to 5 and less than or equal to 30, and/or “n” can represent a number that is, for example, greater than or equal to 0 and less than or equal to 25. Additionally, the “*” can represent: one or more repetitions of all and/or parts of the structures shown, one or more hydrogens, an alkyl group, an aryl group, a combination thereof, and/or the like. Unless otherwise stated, materials utilized to facilitate the experiments, tables, charts, diagrams, and/or the like described herein can be acquired from the following sources. The bacteria Staphylococcus aureus (“S. aureus”, ATCC 29737), Escherichia coli (“E. coli”, ATCC 25922), Pseudomonas aeruginosa (“P. aeruginosa”, ATCC 9027), Candida albicans (“C. albicans”, ATCC 10231), and/or Klebsiella pneumoniae (“K. pneumoniae”, ATCC700603) were acquired from American Type Culture Collection (“ATCC”).
Further, Table 1, presented below, can depict the antimicrobial activity of the guanidinium functionalized polylysine polymers and/or antibiotics individually with regards to K. pneumoniae.
By MIC is commonly meant the lowest concentration that inhibits growth of the organism. Turning to `CO/N=C(\C(=O)N[C@@H]1C(=O)N2C(C(=O)O)=C(CSC(=O)c3ccco3)CS[C@H]12)c1csc(N)n1` [Ceftiofur], the MIC lay in the range of 4 to 8 µg/mL.

For the compound `CN(C)[C@@H]1C(O)=C(C(N)=O)C(=O)[C@@]2(O)C(O)=C3C(=O)c4c(O)ccc(Cl)c4[C@@](C)(O)[C@H]3C[C@@H]12` [Chlortetracycline], the MIC was found to be 15.6 µg/mL.

As for `CCN1CCN(c2cc3c(cc2F)c(=O)c(C(=O)O)cn3C2CC2)CC1` [Enrofloxacin], the MIC worked out at 1 µg/mL.

Consider `CO[C@H]1/C=C/O[C@@]2(C)Oc3c(C)c(O)c4c(O)c(c(/C=N/N5CCN(C)CC5)c(O)c4c3C2=O)NC(=O)/C(C)=C\C=C\[C@H](C)[C@H](O)[C@@H](C)[C@@H](O)[C@@H](C)[C@H](OC(C)=O)[C@@H]1C` [Rifampicin], for which the MIC was 31.3 µg/mL.
